ChEMBL document CHEMBL1201862, “PubChem BioAssay data set” (2004)
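96-well plates; 48 h exposure; 5 concentrations. Endpoints by linear interpolation between flanking doses. Not reached: highest tested concentration assigned. GI50: concentration for 50% inhibition of growth.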 Calls of active or inactive are those of the source. Rule as the data show it: active = GI50 up to about 1.1 µM and inactive = higher.

Assays:
Experiment in all cases: growth of human tumour cells (NCI), 48 h
OVCAR-8 = tested on: OVCAR-8
NCI-H522 = tested on: NCI-H522
SK-OV-3 = tested on: SK-OV-3
HCC 2998 = tested on: HCC 2998
786-0 = tested on: 786-0
TK-10 = tested on: TK-10
SR = tested on: SR
HCT-15 = tested on: HCT-15
UACC-257 = tested on: UACC-257
RXF 393 = tested on: RXF 393
T47D = tested on: T47D
SNB-19 = tested on: SNB-19
M14 = tested on: M14
COLO 205 = tested on: COLO 205
K562 = tested on: K562
SK-MEL-5 = tested on: SK-MEL-5
EKVX = tested on: EKVX
NCI-H460 = tested on: NCI-H460
A549 = tested on: A549

Measured: GI50

CC(/C=C/c1ccccc1)=N\NC(=S)N/N=C(C)/C=C/c1ccccc1
12.7 µM: HCT-15
inactive: OVCAR-8 17.5 µM | NCI-H522 25.3 µM | SK-OV-3 13.3 µM | HCC 2998 20.9 µM | 786-0 11 µM | TK-10 20.5 µM | SR 5.93 µM | UACC-257 20.8 µM | RXF 393 13.7 µM | T47D 13.9 µM | SNB-19 23.2 µM | M14 17.2 µM | COLO 205 19 µM | K562 4.86 µM | SK-MEL-5 13.8 µM | EKVX 47.6 µM | NCI-H460 5.11 µM | A549 17.9 µM

Cn1nc(S(N)(=O)=O)s/c1=N/C(N)=S
> 100 µM: HCT-15
inactive: OVCAR-8 > 100 µM | NCI-H522 > 100 µM | SK-OV-3 > 100 µM | HCC 2998 > 100 µM | 786-0 > 100 µM | TK-10 > 100 µM | SR > 100 µM | UACC-257 > 100 µM | RXF 393 > 100 µM | T47D > 100 µM | SNB-19 > 100 µM | M14 > 100 µM | COLO 205 > 100 µM | K562 > 100 µM | SK-MEL-5 > 100 µM | EKVX > 100 µM | NCI-H460 > 100 µM | A549 > 100 µM

CN(C)CCCNc1ncnc2c1ncn2C1OC(CO)C(O)C1O (centres undefined)
> 100 µM: HCT-15
inactive: OVCAR-8 > 100 µM | NCI-H522 > 100 µM | SK-OV-3 > 100 µM | HCC 2998 > 100 µM | 786-0 > 100 µM | TK-10 > 100 µM | SR > 100 µM | UACC-257 > 100 µM | RXF 393 > 100 µM | T47D > 100 µM | SNB-19 > 100 µM | M14 > 100 µM | COLO 205 > 100 µM | K562 > 100 µM | SK-MEL-5 > 100 µM | EKVX > 100 µM | NCI-H460 > 100 µM | A549 > 100 µM

COc1cc(OC)cc(C(=O)CC(=O)c2cc(OC)cc(OC)c2)c1
inactive: OVCAR-8 > 100 µM | SK-OV-3 > 100 µM | HCC 2998 > 100 µM | 786-0 > 100 µM | TK-10 > 100 µM | SR 47.8 µM | UACC-257 > 100 µM | RXF 393 > 100 µM | T47D > 100 µM | SNB-19 > 100 µM | M14 > 100 µM | COLO 205 > 100 µM | K562 46.1 µM | SK-MEL-5 > 100 µM | EKVX > 100 µM | NCI-H460 56.9 µM | A549 > 100 µM
68.9 µM: HCT-15

CCCCC(=O)c1ccc2ccccc2c1O
inactive: OVCAR-8 > 100 µM | SK-OV-3 > 100 µM | HCC 2998 > 100 µM | 786-0 > 100 µM | TK-10 > 100 µM | SR 62.5 µM | UACC-257 > 100 µM | RXF 393 99.1 µM | T47D 49.2 µM | SNB-19 > 100 µM | M14 > 100 µM | COLO 205 88.9 µM | K562 28.8 µM | SK-MEL-5 > 100 µM | EKVX 62.1 µM | NCI-H460 > 100 µM
> 100 µM: HCT-15

Nc1ccc2c(c1)C(=O)c1ccccc1-2
inactive: OVCAR-8 54.8 µM | NCI-H522 > 100 µM | HCC 2998 93.3 µM | 786-0 > 100 µM | TK-10 > 100 µM | SR 23.6 µM | UACC-257 > 100 µM | RXF 393 > 100 µM | T47D 61.8 µM | SNB-19 > 100 µM | M14 57.4 µM | COLO 205 91.4 µM | K562 51.6 µM | SK-MEL-5 > 100 µM | EKVX 89.7 µM | NCI-H460 > 100 µM | A549 > 100 µM
95.5 µM: HCT-15

CCN(CC)c1nc(NC2CCCCC2)c2nc(N(CC)CC)nc(NC3CCCCC3)c2n1
inactive: OVCAR-8 > 100 µM | SK-OV-3 > 100 µM | HCC 2998 > 100 µM | 786-0 > 100 µM | TK-10 > 100 µM | SR > 100 µM | RXF 393 33.3 µM | T47D > 100 µM | SNB-19 > 100 µM | M14 > 100 µM | K562 > 100 µM | SK-MEL-5 > 100 µM | EKVX > 100 µM | NCI-H460 > 100 µM | A549 > 100 µM
> 100 µM: HCT-15

COc1ccc2nc3n(c2c1)C(c1c(Cl)cccc1Cl)SC3 (centres undefined)
inactive: OVCAR-8 > 100 µM | SK-OV-3 > 100 µM | HCC 2998 > 100 µM | 786-0 > 100 µM | TK-10 > 100 µM | SR > 100 µM | UACC-257 > 100 µM | RXF 393 > 100 µM | T47D > 100 µM | SNB-19 > 100 µM | M14 > 100 µM | COLO 205 > 100 µM | K562 > 100 µM | SK-MEL-5 > 100 µM | EKVX > 100 µM | NCI-H460 > 100 µM | A549 > 100 µM
> 100 µM: HCT-15

COc1ccc(Nc2nc3c([nH]2)c(=O)n(C)c(=O)n3C)cc1
> 10 µM: HCT-15
inactive: OVCAR-8 > 10 µM | SK-OV-3 > 10 µM | HCC 2998 > 10 µM | 786-0 > 10 µM | TK-10 > 10 µM | SR > 10 µM | UACC-257 > 10 µM | RXF 393 > 10 µM | T47D > 10 µM | M14 > 10 µM | COLO 205 > 10 µM | K562 > 10 µM | SK-MEL-5 > 10 µM | EKVX > 10 µM | A549 > 10 µM

Cc1ccc(SCC(OCn2cnc3c(Cl)nc(N)nc32)[C@H](C)F)cc1 (some centres undefined)
> 100 µM: HCT-15
inactive: OVCAR-8 63 µM | NCI-H522 13.8 µM | SK-OV-3 > 100 µM | HCC 2998 > 100 µM | 786-0 85.1 µM | TK-10 > 100 µM | SR 28.2 µM | UACC-257 21.1 µM | T47D 71.1 µM | SNB-19 > 100 µM | M14 > 100 µM | COLO 205 > 100 µM | SK-MEL-5 18.1 µM | NCI-H460 78.2 µM | A549 69.5 µM

O=C(CCCC(=O)N1CC(CCl)c2ccc([N+](=O)[O-])cc21)N1CC(CCl)c2ccc([N+](=O)[O-])cc21 (centres undefined)
> 100 µM: HCT-15
inactive: NCI-H522 71.4 µM | SK-OV-3 > 100 µM | HCC 2998 63.8 µM | 786-0 > 100 µM | TK-10 > 100 µM | SR 9.1 µM | UACC-257 > 100 µM | RXF 393 > 100 µM | T47D > 100 µM | SNB-19 > 100 µM | M14 > 100 µM | COLO 205 > 100 µM | K562 > 100 µM | SK-MEL-5 97.9 µM | NCI-H460 38.4 µM | A549 33.3 µM

CC1(C(O)c2ccccc2)CN(C(C)(C)C)C(=O)/C1=C\Sc1ccccc1 (centres undefined)
inactive: OVCAR-8 28.2 µM | NCI-H522 2.48 µM | SK-OV-3 44.9 µM | HCC 2998 94.2 µM | 786-0 46 µM | TK-10 > 100 µM | SR 30.3 µM | UACC-257 24.9 µM | T47D 13.3 µM | SNB-19 > 100 µM | M14 51.3 µM | COLO 205 20.9 µM | K562 42.1 µM | SK-MEL-5 43.7 µM | EKVX 83 µM | A549 20.2 µM
29.2 µM: HCT-15

O=C(O)Cc1ccc(/N=N/c2c(O)c(C(=O)O)cc3ccccc23)cc1
inactive: OVCAR-8 > 100 µM | SK-OV-3 > 100 µM | HCC 2998 > 100 µM | 786-0 > 100 µM | TK-10 > 100 µM | SR > 100 µM | UACC-257 > 100 µM | RXF 393 > 100 µM | T47D > 100 µM | SNB-19 > 100 µM | M14 > 100 µM | COLO 205 > 100 µM | K562 > 100 µM | SK-MEL-5 71.8 µM | EKVX > 100 µM | NCI-H460 > 100 µM | A549 > 100 µM
> 100 µM: HCT-15

CO/C(=N\N=C\c1cc(OC)ccc1OC)c1ccncc1
> 10 µM: HCT-15
inactive: OVCAR-8 > 10 µM | SK-OV-3 > 10 µM | HCC 2998 > 10 µM | 786-0 > 10 µM | TK-10 > 10 µM | SR > 10 µM | RXF 393 > 10 µM | T47D > 10 µM | SNB-19 > 10 µM | COLO 205 > 10 µM | K562 > 10 µM | SK-MEL-5 > 10 µM | NCI-H460 > 10 µM | A549 > 10 µM

Cc1c[nH]c(C(=O)O)c1-c1ccc2c(-c3ccccc3)nc3ccccc3n12
inactive: OVCAR-8 22.6 µM | NCI-H522 20.9 µM | SK-OV-3 32.1 µM | HCC 2998 13.7 µM | 786-0 33.3 µM | TK-10 29.2 µM | SR 33 µM | UACC-257 30.8 µM | RXF 393 18.2 µM | T47D 37.2 µM | M14 31.7 µM | COLO 205 39.4 µM | K562 41.5 µM | SK-MEL-5 30.5 µM | EKVX 20.5 µM | NCI-H460 22.9 µM | A549 33.7 µM
30 µM: HCT-15

CCOC(=O)C(CS)NC(=O)CCCCCCCC(=O)O (centres undefined)
inactive: OVCAR-8 > 100 µM | NCI-H522 > 100 µM | SK-OV-3 > 100 µM | HCC 2998 > 100 µM | 786-0 > 100 µM | TK-10 > 100 µM | SR > 100 µM | UACC-257 > 100 µM | T47D > 100 µM | SNB-19 > 100 µM | M14 > 100 µM | COLO 205 > 100 µM | K562 > 100 µM | SK-MEL-5 > 100 µM | EKVX > 100 µM | NCI-H460 > 100 µM | A549 > 100 µM
> 100 µM: HCT-15
